Experimental data reported in PMC11359040, “Long-Circulating and Brain-Targeted Liposomes Loaded with Isoliquiritigenin: Formation, Characterization, Pharmacokinetics, and Distribution” (Pharmaceutics, 2024).

Experiment: Concentration of free isoliquiritigenin in saturated aqueous phase by HPLC
Format: physicochemical
Method: A total of 100 μL of ISL-LP solution was added to 900 μL of methanol and then subjected to vortex shaking for 10 min to disrupt the liposome structure. Following centrifugation at a speed of 13,000 rpm and a temperature of 4 °C for 10 min, 100 μL of the supernatant was diluted with methanol and then filtered through 0.22 μm membranes. Subsequently, 15 μL of the solution was injected into a high-performance liquid chromatography system (HPLC, Agilent 1100, Santa Clara, CA, USA) to detect the concentration of ISL according to the method previously reported. Before these steps, we quantified the concentration of free isoliquiritigenin in the saturated aqueous phase by HPLC. […] The drug loading (DL) and EE of ISL-LP were calculated according to Equations (1) and (2):EE (%) = (Wloaded/Wadded) × 100%(1) DL (%) = (Wloaded/Wtotal) × 100%(2) where Wloaded represents the amount of ISL loaded, Wadded denotes the weight of ISL added, and Wtotal signifies the weight of liposomes.

For `O=C(/C=C/c1ccc(O)cc1)c1ccc(O)cc1O` [isoliquiritigenin, Isoliquiritigenin], the “concentration of free isoliquiritigenin in the saturated aqueous phase” value was “below the detection limit”.
